The results in this text go back to patent US9518061B2, “Substituted pyrazolylpyrazole derivative and use of same as herbicide” (KYOYU AGRI CO., LTD., priority 2013, dated 2016).

What all share (type): in vivo
One series deals with Echinochloa crus-galli. The experiment in a line: Paddy herbicidal activity test. As to conditions: irrigated paddy pot, treated at 3.5 leaf stage of Echinochloa crus-galli, 30 days. The protocol: (§1) 1. Paddy Herbicidal Activity Test
(§2) Rice paddy soil was filled into a 1/10000 are pot followed by the addition of suitable amounts of water and chemical fertilizer, kneading, seeding with Echinochloa crus-galli, Monochoria vaginalis and Scirpus juncoides and maintaining in an irrigated state at a water depth of 3 cm.
(§3) Wettable powder of Target Compound (I) shown in Table 1 prepared in compliance with the preparation examples were diluted with a suitable amount of water, rice plants in the 2.0 leaf stage were transplanted during 3.5 leaf stage of Echinochloa crus-galli, and treated by dropping in chemical in the prescribed amount per are using a pipette.
(§4) After treating for 30 days in a glass greenhouse at an average atmospheric temperature of 30° C., the herbicidal efficacy thereof was investigated.
(§5) Evaluation of herbicidal efficacy was carried out by comparing growth inhibition rate (%) with an untreated group, while evaluation of phytotoxicity was carried out by comparing growth inhibition rate (%) with the state of a complete eradication group, and were evaluated at 11 levels indicated below.

The next series has as its system Monochoria vaginalis. In words: Paddy herbicidal activity test. As to conditions: irrigated paddy pot, 30 days. The procedure:
as §1, §2, §3, §4, §5

The subject of a further series is Scirpus juncoides. The experiment in a line: Paddy herbicidal activity test. Particulars: irrigated paddy pot, 30 days. The protocol: as §1, §2, §3, §4, §5
A further series deals with Rice plants. In words: Paddy herbicidal activity test, phytotoxicity to transplanted rice. As to conditions: rice transplanted in 2.0 leaf stage, 30 days. The protocol:
as §1, §2, §3, §4, §5

The subject of series [1] is Amaranthus retroflexus. The experiment in a line: Farming soil treatment test. Particulars: soil surface spray prior to weed growth, 30 days. The procedure:
(§6) 2. Farming Soil Treatment Test
(§7) Field soil was filled into a 1/6000 are pot followed by seeding with Digitaria ciliaris, Chenopodium album and Amaranthus retroflexus and covering with soil.
(§8) Wettable powder of compounds of formula (D shown in Table 1 prepared in compliance with the preparation examples were diluted with water to the prescribed amount of chemical and uniformly sprayed onto each soil surface layer using 10 liters of sprayed water per are prior to weed growth following seeding.
as §4
(§9) Evaluation of herbicidal efficacy was carried out in the same manner as the above-mentioned Test Example 1.

For series [2], the system named is Chenopodium album. The experiment in a line: Farming soil treatment test. As to conditions: soil surface spray prior to weed growth, 30 days. The procedure: as §6, §7, §8, §4, §9
Series [3] concerns Digitaria ciliaris. In words: Farming soil treatment test. As to conditions: soil surface spray prior to weed growth, 30 days. The procedure: as §6, §7, §8, §4, §9
In series [4] the test system is Amaranthus retroflexus. In words: Weed foliar treatment test. Particulars: foliar spray, 3 weeks. The protocol:
(§10) 3. Weed Foliar Treatment Test
(§11) Soil was filled into a 1/6000 are pot followed by seeding with Digitaria ciliaris, Chenopodium album and Amaranthus retroflexus, covering with soil, and cultivating in a glass greenhouse at an average atmospheric temperature of 25° C.
(§12) Wettable powder of Target Compound (I) shown in Table 1 prepared in compliance with the preparation examples were diluted with water to the prescribed amount of chemical and uniformly sprayed onto the weeds using 15 liters of sprayed water per are when Digitaria ciliaris had grown to the 1.0 to 2.0 leaf stage.
(§13) After treating for 3 weeks in a glass greenhouse at an average atmospheric temperature of 25° C., the herbicidal efficacy thereof was investigated.
as §9

In series [5] the test system is Chenopodium album. In words: Weed foliar treatment test. Particulars: foliar spray, 3 weeks. The procedure: as §10, §11, §12, §13, §9
Series [6] concerns Digitaria ciliaris. The experiment in a line: Weed foliar treatment test. As to conditions: foliar spray at 1.0 to 2.0 leaf stage of Digitaria ciliaris, 3 weeks. The protocol: as §10, §11, §12, §13, §9

In the case of `N#Cc1cnn(-c2nn3c(c2Br)CCCC3)c1N(CCCl)C(=O)C(F)(F)F` [Compound 16], the “herbicidal efficacy (growth inhibition rate level) Echinochloa crus-galli” value is 9 (90% to less than 100%) in the series with Echinochloa crus-galli (1g a.i./10a) and 10 (100%) in the series with Echinochloa crus-galli (5g a.i./10a). In addition, the “herbicidal efficacy (growth inhibition rate level) Monochoria vaginalis” value in the series with Monochoria vaginalis (1g a.i./10a) was 7 (70% to less than 80%); with Monochoria vaginalis (5g a.i./10a), 8 (80% to less than 90%). Further, the “herbicidal efficacy (growth inhibition rate level) Scirpus juncoides” value is reported as 8 (80% to less than 90%) in the series with Scirpus juncoides (1g a.i./10a) and 9 (90% to less than 100%) with Scirpus juncoides (5g a.i./10a). In addition, the entries for the “phytotoxicity (growth inhibition rate level) Rice plants” value with Rice plants (1g a.i./10a) and in the series on Rice plants (5g a.i./10a) were 0 (0 (exponent): 0% to less than 10% (growth inhibition rate)) and 1 (10% to less than 20%), respectively. Also, the “herbicidal efficacy (growth inhibition rate level) Amaranthus retroflexus” value in the series with Amaranthus retroflexus [1] (5g a.i./10a), in the series with Amaranthus retroflexus [1] (10g a.i./10a), with Amaranthus retroflexus [4] (5g a.i./10a) and in the series with Amaranthus retroflexus [4] (10g a.i./10a) was 10 (100%) each time. Also, the “herbicidal efficacy (growth inhibition rate level) Chenopodium album” value with Chenopodium album [2] (5g a.i./10a), in the series with Chenopodium album [2] (10g a.i./10a), in the series on Chenopodium album [5] (5g a.i./10a) and in the series with Chenopodium album [5] (10g a.i./10a) was 10 (100%) throughout. For the same compound, the “herbicidal efficacy (growth inhibition rate level) Digitaria ciliaris” value in the series on Digitaria ciliaris [3] (5g a.i./10a), in the series with Digitaria ciliaris [3] (10g a.i./10a), in the series with Digitaria ciliaris [6] (5g a.i./10a) and in the series with Digitaria ciliaris [6] (10g a.i./10a) was 10 (100%) each time.

Turning to `COCCN(C(=O)C(F)(F)F)c1c([N+](=O)[O-])cnn1-c1nn2c(c1Cl)CCCC2` [Compound 20], the “herbicidal efficacy (growth inhibition rate level) Echinochloa crus-galli” value with Echinochloa crus-galli (1g a.i./10a) is given as 9 (90% to less than 100%); in the series with Echinochloa crus-galli (5g a.i./10a), 10 (100%). In addition, the “herbicidal efficacy (growth inhibition rate level) Monochoria vaginalis” value in the series with Monochoria vaginalis (1g a.i./10a) and with Monochoria vaginalis (5g a.i./10a) was 9 (90% to less than 100%) each time. Further, the “herbicidal efficacy (growth inhibition rate level) Scirpus juncoides” value is given as 9 (90% to less than 100%) with Scirpus juncoides (1g a.i./10a) and 10 (100%) with Scirpus juncoides (5g a.i./10a). Besides, the “phytotoxicity (growth inhibition rate level) Rice plants” value with Rice plants (1g a.i./10a) and in the series on Rice plants (5g a.i./10a) was 1 (10% to less than 20%) in each case. Moreover, the “herbicidal efficacy (growth inhibition rate level) Amaranthus retroflexus” value with Amaranthus retroflexus [1] (5g a.i./10a), in the series with Amaranthus retroflexus [1] (10g a.i./10a), in the series on Amaranthus retroflexus [4] (5g a.i./10a) and with Amaranthus retroflexus [4] (10g a.i./10a) was 10 (100%) throughout. The “herbicidal efficacy (growth inhibition rate level) Chenopodium album” value in the series with Chenopodium album [2] (5g a.i./10a), with Chenopodium album [2] (10g a.i./10a), with Chenopodium album [5] (5g a.i./10a) and with Chenopodium album [5] (10g a.i./10a) was 10 (100%) in each case. The “herbicidal efficacy (growth inhibition rate level) Digitaria ciliaris” value in the series with Digitaria ciliaris [3] (5g a.i./10a), with Digitaria ciliaris [3] (10g a.i./10a), in the series with Digitaria ciliaris [6] (5g a.i./10a) and in the series with Digitaria ciliaris [6] (10g a.i./10a) was 10 (100%) throughout.

Regarding `COCCN(C(=O)C(F)(F)F)c1c([N+](=O)[O-])cnn1-c1nn2c(c1Br)CCCC2` [Compound 23], the “herbicidal efficacy (growth inhibition rate level) Echinochloa crus-galli” value in the series on Echinochloa crus-galli (1g a.i./10a) is reported as 7 (70% to less than 80%); in the series on Echinochloa crus-galli (5g a.i./10a), 8 (80% to less than 90%). Further, the “herbicidal efficacy (growth inhibition rate level) Monochoria vaginalis” value with Monochoria vaginalis (1g a.i./10a) and with Monochoria vaginalis (5g a.i./10a) was 8 (80% to less than 90%) each time. Further, the “herbicidal efficacy (growth inhibition rate level) Scirpus juncoides” value in the series with Scirpus juncoides (1g a.i./10a) and with Scirpus juncoides (5g a.i./10a) was 8 (80% to less than 90%) each time. The “phytotoxicity (growth inhibition rate level) Rice plants” value with Rice plants (1g a.i./10a) and in the series on Rice plants (5g a.i./10a) was 0 (0 (exponent): 0% to less than 10% (growth inhibition rate)) each time.

With `COCCNc1c(C#N)cnn1-c1nn2c(c1Cl)CCCC2` [Control agent 4.63], the “herbicidal efficacy (growth inhibition rate level) Echinochloa crus-galli” value with Echinochloa crus-galli (1g a.i./10a) is reported as 2 (20% to less than 30%); with Echinochloa crus-galli (5g a.i./10a), 3 (30% to less than 40%). Moreover, the “herbicidal efficacy (growth inhibition rate level) Monochoria vaginalis” value in the series with Monochoria vaginalis (1g a.i./10a) was 1 (10% to less than 20%); with Monochoria vaginalis (5g a.i./10a), 2 (20% to less than 30%). In addition, the “herbicidal efficacy (growth inhibition rate level) Scirpus juncoides” value is 1 (10% to less than 20%) in the series with Scirpus juncoides (1g a.i./10a) and 2 (20% to less than 30%) in the series on Scirpus juncoides (5g a.i./10a). Moreover, the “phytotoxicity (growth inhibition rate level) Rice plants” value in the series on Rice plants (1g a.i./10a) is reported as 0 (0 (exponent): 0% to less than 10% (growth inhibition rate)); in the series with Rice plants (5g a.i./10a), 1 (10% to less than 20%). Further, the “herbicidal efficacy (growth inhibition rate level) Amaranthus retroflexus” value is listed as 4 (40% to less than 50%) in the series on Amaranthus retroflexus [1] (5g a.i./10a), 5 (50% to less than 60%) with Amaranthus retroflexus [1] (10g a.i./10a), 3 (30% to less than 40%) with Amaranthus retroflexus [4] (5g a.i./10a) and 6 (60% to less than 70%) with Amaranthus retroflexus [4] (10g a.i./10a). Moreover, the “herbicidal efficacy (growth inhibition rate level) Chenopodium album” value with Chenopodium album [2] (5g a.i./10a) was 4 (40% to less than 50%); with Chenopodium album [2] (10g a.i./10a), 5 (50% to less than 60%); in the series with Chenopodium album [5] (5g a.i./10a), 3 (30% to less than 40%); in the series with Chenopodium album [5] (10g a.i./10a), 5 (50% to less than 60%). Moreover, the “herbicidal efficacy (growth inhibition rate level) Digitaria ciliaris” value with Digitaria ciliaris [3] (5g a.i./10a) is 3 (30% to less than 40%); in the series on Digitaria ciliaris [3] (10g a.i./10a), 3 (30% to less than 40%); with Digitaria ciliaris [6] (5g a.i./10a), 2 (20% to less than 30%); in the series on Digitaria ciliaris [6] (10g a.i./10a) it was 4 (40% to less than 50%).

As for `N#Cc1cnn(-c2nn3c(c2Cl)CCCC3)c1NCCCl` [Control agent 4.92], the “herbicidal efficacy (growth inhibition rate level) Echinochloa crus-galli” value is 1 (10% to less than 20%) in the series on Echinochloa crus-galli (1g a.i./10a) and 2 (20% to less than 30%) with Echinochloa crus-galli (5g a.i./10a). Besides, the “herbicidal efficacy (growth inhibition rate level) Monochoria vaginalis” value is listed as 0 (0 (exponent): 0% to less than 10% (growth inhibition rate)) with Monochoria vaginalis (1g a.i./10a) and 1 (10% to less than 20%) in the series with Monochoria vaginalis (5g a.i./10a). In addition, the “herbicidal efficacy (growth inhibition rate level) Scirpus juncoides” value was 2 (20% to less than 30%) with Scirpus juncoides (1g a.i./10a) and 4 (40% to less than 50%) in the series on Scirpus juncoides (5g a.i./10a). In addition, the results for the “phytotoxicity (growth inhibition rate level) Rice plants” value in the series with Rice plants (1g a.i./10a) and in the series with Rice plants (5g a.i./10a) were 0 (0 (exponent): 0% to less than 10% (growth inhibition rate)) and 1 (10% to less than 20%), respectively. In addition, the “herbicidal efficacy (growth inhibition rate level) Amaranthus retroflexus” value in the series with Amaranthus retroflexus [1] (5g a.i./10a) is 3 (30% to less than 40%); in the series on Amaranthus retroflexus [1] (10g a.i./10a), 4 (40% to less than 50%); with Amaranthus retroflexus [4] (5g a.i./10a), 4 (40% to less than 50%); in the series with Amaranthus retroflexus [4] (10g a.i./10a), 5 (50% to less than 60%). The “herbicidal efficacy (growth inhibition rate level) Chenopodium album” value is 4 (40% to less than 50%) with Chenopodium album [2] (5g a.i./10a), 5 (50% to less than 60%) in the series on Chenopodium album [2] (10g a.i./10a), 3 (30% to less than 40%) in the series on Chenopodium album [5] (5g a.i./10a) and 6 (60% to less than 70%) in the series on Chenopodium album [5] (10g a.i./10a). The “herbicidal efficacy (growth inhibition rate level) Digitaria ciliaris” value with Digitaria ciliaris [3] (5g a.i./10a) was 2 (20% to less than 30%); in the series on Digitaria ciliaris [3] (10g a.i./10a), 3 (30% to less than 40%); in the series with Digitaria ciliaris [6] (5g a.i./10a), 4 (40% to less than 50%); in the series on Digitaria ciliaris [6] (10g a.i./10a), 5 (50% to less than 60%).
